Common to all, as to type: in vivo
The test system of assay [1] is velvetleaf (Abutilon theophrasti MEDIC.). The experiment in a line: Test Example 1: foliar treatment, upland pot. Conditions: 7 g/ha, 21st day after application. From the text: Upland field soil was put into a 1/170,000 hectare pot, and seeds of various plants were sown. […] The spray solutions thus prepared were applied for foliar treatment by a small sprayer.
For assay [2], the system named is Japanese bulrush (Scirpus juncoides). As to the kind of experiment: Test Example 4: paddy field pot, water application. Conditions: 63 g/ha, 14th day after application. An excerpt: (§1) Paddy field soil was put into a 1/1,000,000 hectare pot, and seeds of barnyardgrass (Echinochloa oryzicola vasing.) and Japanese bulrush (Scirpus juncoides) were sown and lightly covered with soil. Then, pot was left to stand in a greenhouse in a state irrigated to a water depth of from 0.5 to 1 cm, and next day or two days later, tubers of Japanese ribbon waparo (Sagittaria pygmaea) were planted. Then, the irrigated water depth was maintained to be from 3 to 4 cm, and when barnyardgrass and Japanese bulrush reached 0.5 leaf stage, and Japanese ribbon waparo reached primary leaf stage, a water diluted solution of a wettable powder or an emulsifieable concentrate of the compound of the present invention prepared in accordance with a conventional preparation method, was uniformly dropwise applied by a pipette so that the amount of active ingredients would be a prescribed amount. Further, paddy field soil was put into a 1/1,000,000 pot, followed by soil puddling to an irrigated water depth of from 3 to 4 cm. Next day, rice (Oryza sativa L.) (var.: Nihonbare) of two leaf stage was transplanted in a transplantation depth of 3 cm. On the 4th day after transplantation, the compound of the present invention was applied in the same manner as described above.

Assay [3] deals with Japanese ribbon waparo (Sagittaria pygmaea). As to the kind of experiment: Test Example 4: paddy field pot, water application. Conditions: 63 g/ha, 14th day after application.
From the text: as §1

The subject of assay [4] is barnyardgrass (Echinochloa oryzicola vasing.). As to the kind of experiment: Test Example 4: paddy field pot, water application. Conditions: 63 g/ha, 14th day after application.
From the text: as §1

The subject of assay [5] is barnyardgrass (Echinochloa crus-galli L.). The experiment in a line: Test Example 2: soil application on the day after sowing. Conditions: 250 g/ha, 19th to 22nd day after application. From the text: (§2) Upland field soil was put into a 1/170,000 hectare pot, and seeds of various plants (barnyardgrass (Echinochloa crus-galli L.), crabgrass (Digitaria sanguinalis L.), green foxtail (Setaria viridis L.), redroot pigweed (Amaranthus retroflexus L.), prickly sida (Sida spinosa L.), velvetleaf (Abutilon theophrasti MEDIC.), rice (oryza sativa L.), corn (Zea mays L.) and soybean (Glycine max Merr.)) were sown. On the day after sowing, wettable powders or emulsifiable concentrates of the compounds of the present invention prepared in accordance with a conventional preparation method, were weighed so that the active ingredients became the prescribed amounts, and diluted with water in an amount corresponding to 500 liter per 1 hectare, followed by soil application with a small sprayer.

Assay [6] concerns prickly sida (Sida spinosa L.). The assay is described as above. Conditions: 250 g/ha, 19th to 22nd day after application.
From the text: as §2

Assay [7] has as its system redroot pigweed (Amaranthus retroflexus L.). Described as above. Conditions: 250 g/ha, 19th to 22nd day after application.
From the text: as §2

Assay [8] concerns velvetleaf (Abutilon theophrasti MEDIC.). The assay is described as above. Conditions: 250 g/ha, 19th to 22nd day after application.
From the text: as §2

Assay [9] has as its system crabgrass (Digitaria sanguinalis L.). The description is as above. Conditions: 250 g/ha, 19th to 22nd day after application.
From the text: as §2

The subject of assay [10] is corn (Zea mays L.). The assay is described as above. Conditions: 250 g/ha, 19th to 22nd day after application, crop.
From the text: as §2

The test system of assay [11] is rice (Oryza sativa L.). Described as above. Conditions: 250 g/ha, 19th to 22nd day after application, crop.
From the text: as §2

Assay [12] relates to green foxtail (Setaria viridis L.). The description is as above. Conditions: 250 g/ha, 19th to 22nd day after application.
From the text: as §2

The test system of assay [13] is soybean (Glycine max Merr.). The description is as above. Conditions: 250 g/ha, 19th to 22nd day after application, crop.
From the text: as §2

The subject of assay [14] is barnyardgrass (Echinochloa crus-galli L.). As to the kind of experiment: Test Example 1: foliar treatment, upland pot. Conditions: 7 g/ha, 21st day after application. From the text:
(§3) Upland field soil was put into a 1/170,000 hectare pot, and seeds of various plants were sown. When the respective plants reached predetermined leaf stage ((1) barnyardgrass (Echinochloa crus-galli L.): 1.0 to 3.3 leaf stage, (2) crabgrass (Digitaria sanguinalis L.): 1.2 to 3.0 leaf stage, (3) green foxtail (Setaria viridis L.): 1.5 to 3.3 leaf stage, (4) redroot pigweed (Amaranthus retroflexus L.): 0.1 to 2.0 leaf stage, (5) prickly sida (Sida spinosa L.): cotyledon stage to 2.0 leaf stage, (6) velvetleaf (Abutilon theophrasti MEDIC.): 0.1 to 2.0 leaf stage, (7) rice (Oryza sativa L.): 1.3 to 3.0 leaf stage, (8) corn (Zea mays L.): 2.5 to 3.4 leaf stage, and (9) soybean (Glycine max Merr.): primary leaf stage to 0.3 leaf stage), wettable powders or emulsifiable concentrates of the compounds of the present invention prepared in accordance with a conventional preparation method, were weighed so that the active ingredients became the prescribed amounts, and diluted with water in an amount corresponding to 500 liter per 1 hectare (containing 0.1 vol % of an agricultural spreader (“KUSARINOH”, manufactured by NIHON NOHYAKU CO., LTD.)). The spray solutions thus prepared were applied for foliar treatment by a small sprayer.

Assay [15] has as its system prickly sida (Sida spinosa L.). As to the kind of experiment: Test Example 1: foliar treatment, upland pot. Conditions: 7 g/ha, 21st day after application.
From the text: as §3

Assay [16] relates to redroot pigweed (Amaranthus retroflexus L.). As to the kind of experiment: Test Example 1: foliar treatment, upland pot. Conditions: 7 g/ha, 21st day after application.
From the text: as §3

Assay [17] relates to crabgrass (Digitaria sanguinalis L.). The experiment in a line: Test Example 1: foliar treatment, upland pot. Conditions: 7 g/ha, 21st day after application.
From the text: as §3

Assay [18] concerns corn (Zea mays L.). As to the kind of experiment: Test Example 1: foliar treatment, upland pot. Conditions: 7 g/ha, 21st day after application, crop.
From the text: as §3

Assay [19] deals with rice (Oryza sativa L.). The experiment in a line: Test Example 1: foliar treatment, upland pot. Conditions: 7 g/ha, 21st day after application, crop.
From the text: as §3

Assay [20] relates to green foxtail (Setaria viridis L.). The experiment in a line: Test Example 1: foliar treatment, upland pot. Conditions: 7 g/ha, 21st day after application.
From the text: as §3

Assay [21] has as its system soybean (Glycine max Merr.). The experiment in a line: Test Example 1: foliar treatment, upland pot. Conditions: 7 g/ha, 21st day after application, crop.
From the text: as §3

In assay [22] the test system is rice (Oryza sativa L.) (var.: Nihonbare). The experiment in a line: Test Example 4: paddy field pot, water application, transplanted rice. Conditions: 63 g/ha, 21st day after application, crop.
From the text: as §1

As to `CCOC(=O)OC(C)Oc1c(C(=O)c2ccc(S(C)(=O)=O)c(OCCOC)c2C)cnn1CC` (racemic) [compound 3], the “Growth inhibition rate (%) Velvetleaf” value in assay [1] was 90%; in assay [8], 80%. Also, in assay [2], the “Growth inhibition rate (%) Japanese bulrush” value is on record as 95%. Also, the “Growth inhibition rate (%) Japanese ribbon waparo” value in assay [3] is listed as 90%. The entries for the “Growth inhibition rate (%) Barnyardgrass” value in [4], in assay [5] and in [14] were 100%, 100% and 95%, respectively. Besides, the “Growth inhibition rate (%) Prickly sida” value in assay [6] came to 50%; in [15] it was 10%. The results for the “Growth inhibition rate (%) Redroot pigweed” value in assay [7] and in [16] were 100% and 90%, respectively. The “Growth inhibition rate (%) Crabgrass” value is 100% in [9] and 95% in assay [17]. Moreover, the “Growth inhibition rate (%) Corn” value in the assay with corn (Zea mays L.) [10] and in the assay with corn (Zea mays L.) [18] was 0% in each case. Besides, the “Growth inhibition rate (%) Rice” value came out at 100% with rice (Oryza sativa L.) [11], 80% in the assay with rice (Oryza sativa L.) [19] and 40% in [22]. Besides, the “Growth inhibition rate (%) Green foxtail” value in assay [12] and in [20] was 100% each time. Further, the “Growth inhibition rate (%) Soybean” value is on record as 20% in assay [13] and 70% in assay [21].
For `COCCOc1c(S(C)(=O)=O)ccc(C(=O)c2cnn(C)c2OC(C)OC(=O)OC(C)C)c1C` (racemic) [compound 4], the entries for the “Growth inhibition rate (%) Velvetleaf” value in assay [1] and in assay [8] were 98% and 70%, respectively. Besides, the “Growth inhibition rate (%) Japanese bulrush” value in assay [2] came to 95%. Further, in assay [3], the “Growth inhibition rate (%) Japanese ribbon waparo” value was 90%. In addition, the “Growth inhibition rate (%) Barnyardgrass” value in [4], in assay [5] and in [14] was 100% in each case. Further, the “Growth inhibition rate (%) Prickly sida” value in assay [6] amounted to 90%; in assay [15] it was 40%. The “Growth inhibition rate (%) Redroot pigweed” value in assay [7] worked out at 95%; in assay [16], 90%. Also, the “Growth inhibition rate (%) Crabgrass” value in [9] amounted to 100%; in assay [17], 90%. The “Growth inhibition rate (%) Corn” value with corn (Zea mays L.) [10] and with corn (Zea mays L.) [18] was 0% in each case. The “Growth inhibition rate (%) Rice” value in the assay with rice (Oryza sativa L.) [11] worked out at 90%; in the assay with rice (Oryza sativa L.) [19], 30%; in [22] it was 50%. Besides, the “Growth inhibition rate (%) Green foxtail” value in assay [12] came out at 95%; in [20], 100%. The “Growth inhibition rate (%) Soybean” value in assay [13] came out at 0%; in [21], 90%.
For `CCOC(=O)OC(C)Oc1c(C(=O)c2ccc(S(C)(=O)=O)c(COCC(F)(F)F)c2C)cnn1C` (racemic) [compound 15], the “Growth inhibition rate (%) Velvetleaf” value in assay [1] amounted to 98%; in assay [8] it was 100%. The “Growth inhibition rate (%) Japanese bulrush” value in assay [2] was determined as 60%. The “Growth inhibition rate (%) Barnyardgrass” value in [4] is 100%; in assay [5], 100%; in assay [14], 70%. The “Growth inhibition rate (%) Prickly sida” value in [6] is 70%; in assay [15], 0%. Further, the “Growth inhibition rate (%) Redroot pigweed” value in assay [7] was found to be 100%; in [16], 90%. Besides, the “Growth inhibition rate (%) Crabgrass” value was determined as 100% in assay [9] and 95% in assay [17]. The “Growth inhibition rate (%) Corn” value stood at 0% in the assay on corn (Zea mays L.) [10] and 10% in the assay on corn (Zea mays L.) [18]. Besides, the “Growth inhibition rate (%) Rice” value in the assay with rice (Oryza sativa L.) [11] stood at 100%; in the assay on rice (Oryza sativa L.) [19], 40%; in assay [22], 10%. Also, the “Growth inhibition rate (%) Green foxtail” value is 100% in assay [12] and 75% in [20]. Further, the “Growth inhibition rate (%) Soybean” value is on record as 0% in assay [13] and 75% in [21].
In the case of `CCOC(=O)OC(C)Oc1c(C(=O)c2ccc(S(C)(=O)=O)c(OCCOC)c2C)cnn1C(C)C` (racemic) [compound 18], the “Growth inhibition rate (%) Velvetleaf” value was 95% in assay [1] and 100% in [8]. In assay [2], the “Growth inhibition rate (%) Japanese bulrush” value worked out at 90%. Further, the “Growth inhibition rate (%) Japanese ribbon waparo” value in [3] is on record as 90%. The “Growth inhibition rate (%) Barnyardgrass” value is recorded as 100% in assay [4], 100% in assay [5] and 95% in assay [14]. Moreover, the results for the “Growth inhibition rate (%) Prickly sida” value in [6] and in [15] were 70% and 30%, respectively. Moreover, the results for the “Growth inhibition rate (%) Redroot pigweed” value in [7] and in assay [16] were 100% and 95%, respectively. The “Growth inhibition rate (%) Crabgrass” value amounted to 100% in assay [9] and 95% in assay [17]. Further, the “Growth inhibition rate (%) Corn” value with corn (Zea mays L.) [10] and in the assay with corn (Zea mays L.) [18] was 0% in each case. Moreover, the “Growth inhibition rate (%) Rice” value in the assay with rice (Oryza sativa L.) [11] is 100%; in the assay with rice (Oryza sativa L.) [19], 70%; in assay [22], 0%. Also, the “Growth inhibition rate (%) Green foxtail” value in assay [12] stood at 100%; in assay [20], 90%. Also, the “Growth inhibition rate (%) Soybean” value in assay [21] came to 80%.
As to `CCOC(=O)OC(C)Oc1c(C(=O)c2ccc(S(C)(=O)=O)c(C(=O)OC)c2C)cnn1C` (racemic) [compound 21], the “Growth inhibition rate (%) Velvetleaf” value in [1] was determined as 85%; in assay [8] it was 90%. Moreover, in [2], the “Growth inhibition rate (%) Japanese bulrush” value stood at 70%. Moreover, the “Growth inhibition rate (%) Japanese ribbon waparo” value in [3] is 70%. Moreover, the “Growth inhibition rate (%) Barnyardgrass” value turned out to be 100% in assay [4], 100% in assay [5] and 90% in [14]. Further, in [6], the “Growth inhibition rate (%) Prickly sida” value is on record as 60%. Moreover, the “Growth inhibition rate (%) Redroot pigweed” value in assay [7] is on record as 100%; in assay [16] it was 90%. The “Growth inhibition rate (%) Crabgrass” value in assay [9] amounted to 100%; in assay [17], 90%. Also, the “Growth inhibition rate (%) Corn” value in the assay on corn (Zea mays L.) [10] and in the assay on corn (Zea mays L.) [18] was 0% throughout. The “Growth inhibition rate (%) Rice” value was found to be 100% in the assay on rice (Oryza sativa L.) [11], 80% with rice (Oryza sativa L.) [19] and 10% in assay [22]. The “Growth inhibition rate (%) Green foxtail” value in assay [12] was found to be 100%; in assay [20], 80%. The “Growth inhibition rate (%) Soybean” value in assay [13] is given as 50%; in [21] it was 95%.

(Values after patent publication US8119569B2, “Benzoylpyrazole compounds, process for their production and herbicides containing them” (Ishihara Sangyo Kaisha, Ltd., priority 2006, dated 2012).)
